In US20230250182A1, “METHODS FOR TREATING CANCER OR VON-HIPPEL LINDAU DISEASE USING A COMBINATION OF A PD-1 ANTAGONIST, A HIF-2 ALPHA INHIBITOR, AND LENVATINIB OR A PHARMACEUTICALLY ACCEPTABLE SALT THEREOF” (Merck Sharp & Dohme LLC, priority 2020, published 2023):

Tests used:
KPC-2838c3 cells = experiment: VHL proficient mouse syngeneic pancreatic tumor model; type: in vivo, C57BL/6J mice; conditions: for Final CRs (complete tumor regressions) / Final PRs (partial tumor regressions): 10 mice per group; for Final CRs (complete tumor regressions): CR = no observable tumor; for Final PRs (partial tumor regressions): PR = tumor volume lower than original size when treatment began; for TGI (tumor growth inhibition): Day 24, MK-6482 3 mg/kg BID oral, lenvatinib 10 mg/kg QD oral, anti-PD-1 10 mg/kg i.p. every 5 days
Excerpt: Prior to treatment initiation, female C57BL/6J mice aged 7 weeks weighing between 18 to 21 grams were anesthetized and injected into the rear flank with 0.5×10^6 log-phase sub-confluent KPC-2838c3 cells. Ten (10) days later when the mean tumor volume of inoculated animals reached approximately 95 mm^3, mice were pair-matched into 8 treatment groups consisting of 10 mice per group. Treatment groups consisted of: 1) 0.5% methylcellulose (Vehicle)+Isotype mouse IgG1 antibody (mIgG1); 2) MK-6482+mIgG1; 3) Lenvatinib+mIgG1; 4) Vehicle+anti-mouse PD-1 IgG1 antibody; 5) MK-6482+anti-PD-1; 6) Lenvatinib+anti-PD-1; 7) MK-6482+Lenvatinib; 8) MK-6482+Lenvatinib+anti-PD-1. Vehicle and MK-6482 were orally gavage-dosed twice daily (BID) at 3 mg/kg body weight. Lenvatinib was orally dosed once daily (QD) at 10 mg/kg body weight. Isotype control, a mouse monoclonal antibody specific for adenoviral hexon of the isotype IgG1, and anti-PD-1 antibodies were dosed intraperitoneally every 5 days at 10 mg/kg body weight. Start of treatments was considered Day 0 and dosing based on schedules continued as described until Day 45. Caliper measurements of tumors and body weights were captured twice weekly. Statistical analyses were performed by one-way ANOVA with Tukey multiple comparison tests at the timepoints specified when treatment groups reached endpoints.
CRs were defined as no observable tumor whereas PRs were tumors whose volume was lower than the original tumor size when treatment began. There was no significant body weight loss or adverse events observed in any animals treated with the above therapies, indicating the treatments were well tolerated.

[1] = Phase 1 cross-over food-effect PK study of single dose MK-6482 in healthy volunteers; type: in vivo, human; conditions: single dose of 120 mg, healthy female adult volunteers
[2] = FIH Phase 1 study of tolerability, safety, PK and PD of MK-6482 in participants with advanced solid tumors; type: in vivo, human
Procedure: As of 6 Sep. […] 52 additional participants with advanced RCC were treated in an expansion cohort (Part 1B) at the clinical dose of 120 mg QD.

[3] = Phase 2 open-label efficacy and safety study in VHL disease associated RCC; type: in vivo, human; conditions: 120 mg QD, 61 participants with VHL disease associated RCC
Excerpt: A Phase 2, open-label efficacy and safety study in participants with VHL disease associated RCC is ongoing. As of 6 Sep.

[4] = combined dose escalation and expansion cohorts
[5] = dose escalation (Part 1A) 20 to 240 mg QD and 120 mg BID

Row | Compound | Final CRs (complete tumor regressions) (KPC-2838c3 cells) | Final PRs (partial tumor regressions) (KPC-2838c3 cells) | TGI (tumor growth inhibition) (KPC-2838c3 cells) | delay of time to peak MK-6482 exposure, median difference (Fed-Fasted) [1] | most common adverse event (AE) reported: headache [1] | effect of high fat, high calorie meal on extent of MK-6482 exposure ([1]; fed vs fasted) | lowering of maximum plasma MK-6482 concentration by high fat, high calorie meal ([1]; fed vs fasted) | Grade 3 event of hypoxia (DLT) ([2]; 120 mg BID cohort) | accumulation from Day 1 to Day 15 ([2]; 120 mg QD expansion cohort (Part 1B)) | Cmax ([2]; 120 mg QD expansion cohort (Part 1B), Day 15, read-out: mean steady state Cmax) | Grade 4 event of thrombocytopenia (DLT) ([2]; 240 mg QD cohort) | most common AEs (occurring in ≥20% of participants) [2, 4] | most common Grade 3 AEs (in ≥5% of participants) [2, 4] | MTD [2, 5] | treatment-related DLTs observed [2, 5] | Vd/F ([2]; human, in vivo) | estimated CL/F ([2]; human, in vivo) | Tmax ([2]; human, in vivo, participants with advanced solid tumors, oral, read-out: median tmax) | exposure versus dose ([2]; participants with advanced solid tumors) | most common AE of ≥Grade 3 toxicity (reported by ≥5% of participants) [3]
1 | COc1cc2nccc(Oc3ccc(NC(=O)NC4CC4)c(Cl)c3)c2cc1C(N)=O [Lenvatinib, 4-[3-chloro-4-(cyclopropylaminocarbonyl)aminophenoxy]-7-methoxy-6-quinolinecarboxamide] | 0/10 PRs, 0/10 CRs | 0/10 PRs, 0/10 CRs | 90% | – | – | – | – | – | – | – | – | – | – | – | – | – | – | – | – | –
2 | CS(=O)(=O)c1ccc(Oc2cc(F)cc(C#N)c2)c2c1[C@H](O)[C@H](F)[C@@H]2F [MK-6482, 3-[(1S,2S,3R)-2,3-difluoro-1-hydroxy-7-methylsulfonyl-indan-4-yl]oxy-5-fluoro-benzonitrile] | 0/10 PRs, 0/10 CRs | 0/10 PRs, 0/10 CRs | 16% | 2 h | 12.5% | did not affect | approximately 35% | 1 | 1.5 fold | 4.67 µM | 1 | anemia, fatigue, dyspnea, nausea, and peripheral edema | anemia and hypoxia | not reached | 2 | 106 to 266 L | 5.22 to 14.4 L/h | 1 to 2.8 h | exposure increased with dose | Fatigue
